Assay results taken from US8853228B2, “Heterocyclic analogs of propargyl-linked inhibitors of dihydrofolate reductase” (University of Connecticut, priority 2011, dated 2014).
Converted amounts (≈) assume the structure as drawn. Where two headings read alike, the source gives them in different places.

Legend:
ChDHFR-TS = ChDHFR-TS (Cryptosporidium hominis, UniProt Q27552); assay: ChDHFR enzyme inhibition assay; format: biochemical
Protocol: (§1) Enzyme and inhibitor were allowed to incubate for 5 min before adding dihydrofolate to initiate the reaction. Enzyme assays were performed at least four times. IC50 values and their standard deviations were calculated in the presence of varying concentrations of inhibitor near the IC50 concentration.
Compounds were evaluated in spectrophotometric enzyme assays using ChDHFR-TS and hDHFR. Inhibition constants (IC50) were measured (see Table 4). […] The compound abbreviations in Table 4 refer to the following compounds: […]

hDHFR = hDHFR (Homo sapiens (Human), UniProt P00374); assay: hDHFR enzyme inhibition assay; format: biochemical
Protocol: hDHFR: The gene for hDHFR was amplified using PCR from cDNA obtained from ATCC. The gene was inserted in a pET41 vector with a C-terminal histidine tag for affinity chromatography. The resulting construct was verified by sequencing. The hDHFR protein was expressed in E. coli and purified using a nickel affinity column.
as §1
(§2) Enzyme inhibition assays were performed by monitoring the rate of NADPH oxidation by the DHFR enzyme at an absorbance of 340 nm. Assays were performed in the presence of saturating concentrations of NADPH and initiated with dihydrofolate. All assays were completed at 25° C. in a buffer containing 20 mM TES pH 7.0, 50 mM KCl, 10 mM 2-mercaptoethanol, 0.5 mM EDTA and 1 mg/mL BSA. Inhibition was measured at least three times with inhibitor concentrations near the IC50 value and the average IC50 value is reported with a standard deviation.

TgDHFR = TgDHFR (Toxoplasma gondii, UniProt Q07422, DEL43-70); assay: TgDHFR enzyme inhibition assay; format: biochemical
Protocol: These residues were removed, leaving a five residue loop region characteristic of several other species of DHFR.
as §1

CgDHFR = CgDHFR (Candida glabrata (strain ATCC 2001 / BCRC 20586 / JCM 3761 / NBRC 0622 / NRRL Y-65 / CBS 138) (Yeast) (Nakaseomyces glabratus), UniProt Q6FPH0); assay: biochemical; conditions: for Selectivity: Table 7, hDHFR vs CgDHFR
From the text: CgDHFR: The gene coding CgDHFR was amplified by PCR from C. glabrata genomic DNA obtained from ATCC. The gene was inserted in a pET41 vector that includes a C-terminal histidine tag for nickel affinity chromatography. E. coli cells were transformed and the resulting plasmid was verified by sequencing. The protein was expressed in E. coli BL21(DE3) cells with isopropyl β-D-thiogalactoside induction. Following growth, the cells were lysed with BugBuster (Novagen) and centrifuged; the supernatant was loaded on a Ni-NTA column. The column was washed with 20 mM Tris (pH 8.0)/0.4 M NaCl and the protein was eluted using a gradient of 20 mM Tris (pH 8.0), 0.3 M NaCl, 20% glycerol, 0.1 mM EDTA, 2 mM DTT, 250 mM imidazole. Fractions containing CgDHFR were identified by SDS-PAGE, combined and desalted using a PD-10 column with a buffer containing 20 mM Tris pH 8.0, 20% glycerol, 0.1 mM EDTA and 2 mM DTT. The protein was concentrated to 13 mg/mL.
as §1

C. glabrata = assay: Antifungal assay (MIC, Alamar Blue); format: cell-based, Candida glabrata; conditions: for MIC: Nakaseomyces glabratus; for antifungal properties against C. glabrata: result in words
Protocol: Antifungal assays were performed using C. glabrata as a suspension in 50% glycerol at −78° C. For susceptibility testing, a streak of stock culture was made on SDA agar and grown at 30° C. for 48 h. One pure colony of the test organism was recovered from the plate, suspended in appropriate media and grown in a 5 mL shake flask culture. A sample of the shake flask culture was diluted to 1×10^5 cells/mL in media and added to 96-well test plates (100 μL per well) containing test compounds dispensed in DMSO (1 μL). Amphotericin and ketoconazole were used as controls. After an incubation period determined from the strain specific doubling time, Alamar Blue (10 μL) was added, allowed to incubate; each well was scored for dye reduction.
Several representative compounds were also evaluated in thymidine-depleted media. It has been shown that high levels of thymidine interfere with accurate susceptibility testing of antifolates. To compensate for this, antifolates are frequently evaluated in a controlled minimal media with a low thymidine concentration. […] In addition, the compounds were also evaluated for mammalian cell toxicity using MCF-10 and HepG2 cell lines. Cellular selectivity is reported as the IC50 value for the MCF-10 human cell line divided by the MIC value (μg/mL) (Table 8).

Measured solubility = format: physicochemical; conditions: in 200 mcg/mL HPMC and 0.2% DMSO
mammalian cell lines = conditions: result in words
S. aureus DHFR = S. aureus DHFR (Staphylococcus aureus, UniProt P0A017); format: biochemical
Protocol: as §2

S. pyogenes DHFR = S. pyogenes DHFR (Streptococcus pyogenes, UniProt Q9A091); assay: S. pyogenes DHFR enzyme inhibition assay; format: biochemical
Protocol: as §2

S. aureus 13709 (MRSA) = assay: Antibacterial MIC, broth microdilution with Alamar Blue; format: cell-based, Staphylococcus aureus
Protocol: (§3) For susceptibility testing, 10 μL of glycerol stock was suspended in a 10 mL shake flask culture of chemically defined Isosensitest broth (Oxoid) supplemented with 2% w/v glucose. A sample of the shake flask culture was diluted to 1×10^6 cells/mL in media and added to 96-well test plates (100 μL per well) containing test compounds dispensed in DMSO (2 μL). After an incubation period (30° C.) determined from the strain specific doubling time, a 0.03% w/v aqueous solution of resazurin (10 μL) was added and the plates were allowed to incubate; each well was then scored for dye reduction.

Streptococcus pyogenes = assay: as above; format: cell-based
Protocol: as §3

MCF-10 cells = assay: Mammalian cell toxicity, MCF-10; format: cell-based, human; conditions: cytotoxicity
Protocol: (§4) Adherent cell lines were maintained in Eagle's Minimal Essential Media (Sigma-Aldrich, St. Louis, Mo., USA) with 2 mM glutamine and Earle's Balanced Salt Solution (HyClone, Logan, Utah, USA) adjusted to contain 1.5 g/L sodium bicarbonate, 0.1 mM non-essential amino acids, 1 mM sodium pyruvate and 10% fetal calf serum. Fetal calf serum used in these assays was lot matched throughout. […] Toxicity assays were conducted between passages 10-20. Target compound toxicity was measured by incubating the test compound with the cells for 4 h, washing the cells and finally treating the cells with Alamar Blue. After 12-24 h, the fluorescence of the reduced dye was measured. Fluorescence intensity as a function of test compound concentration was fit to the Fermi equation, using non-linear least squares regression analysis, to estimate IC50 values.

HepG2 cells = assay: Mammalian cell toxicity, HepG2; format: cell-based; conditions: cytotoxicity, Table 6
Protocol: as §4

[1] = C. glabrata, Inact: not active at 2 mM (~600 μg/mL), read-out: Antifungal activity MIC
[2] = Table 7, read-out: IC50 (hDHFR)
[3] = Table 7, read-out: IC50 (CgDHFR)
[4] = Table 4, read-out: IC50 (ChDHFR)
[5] = average of at least three measurements

Sequence of TgDHFR (Q07422 71-250, added parts left off, stated change not applied): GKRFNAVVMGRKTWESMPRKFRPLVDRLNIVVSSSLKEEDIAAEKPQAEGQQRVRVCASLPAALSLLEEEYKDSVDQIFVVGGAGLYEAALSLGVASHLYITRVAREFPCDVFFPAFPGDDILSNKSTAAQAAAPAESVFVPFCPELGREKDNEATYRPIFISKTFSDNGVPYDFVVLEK
Sequence of CgDHFR (Q6FPH0 1-217): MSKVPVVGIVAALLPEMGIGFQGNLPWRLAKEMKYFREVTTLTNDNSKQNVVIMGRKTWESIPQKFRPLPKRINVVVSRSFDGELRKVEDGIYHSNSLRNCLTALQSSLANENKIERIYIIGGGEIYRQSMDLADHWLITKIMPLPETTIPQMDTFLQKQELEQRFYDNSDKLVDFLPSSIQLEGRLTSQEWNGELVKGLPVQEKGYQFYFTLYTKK
Sequence of ChDHFR-TS (Q27552 1-521): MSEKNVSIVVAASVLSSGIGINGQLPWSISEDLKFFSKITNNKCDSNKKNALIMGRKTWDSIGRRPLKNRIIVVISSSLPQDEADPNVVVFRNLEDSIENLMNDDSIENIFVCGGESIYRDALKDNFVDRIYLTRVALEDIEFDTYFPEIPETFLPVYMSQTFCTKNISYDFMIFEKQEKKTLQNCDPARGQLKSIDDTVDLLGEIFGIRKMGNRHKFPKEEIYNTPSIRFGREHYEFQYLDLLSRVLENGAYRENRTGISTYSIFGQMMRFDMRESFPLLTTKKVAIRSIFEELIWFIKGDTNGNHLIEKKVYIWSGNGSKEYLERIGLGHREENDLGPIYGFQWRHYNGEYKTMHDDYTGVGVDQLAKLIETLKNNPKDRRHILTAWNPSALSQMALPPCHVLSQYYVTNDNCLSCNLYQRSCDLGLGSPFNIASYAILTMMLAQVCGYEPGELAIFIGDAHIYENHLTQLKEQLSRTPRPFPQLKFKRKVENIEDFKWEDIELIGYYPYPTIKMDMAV
Sequence of hDHFR (P00374 whole entry): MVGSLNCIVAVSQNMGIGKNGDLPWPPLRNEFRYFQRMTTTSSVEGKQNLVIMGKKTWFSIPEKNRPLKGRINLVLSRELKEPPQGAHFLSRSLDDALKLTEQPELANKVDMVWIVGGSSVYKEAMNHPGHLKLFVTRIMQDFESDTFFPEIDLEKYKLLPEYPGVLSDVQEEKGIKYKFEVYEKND
Sequence of S. pyogenes DHFR (Q9A091 1-165): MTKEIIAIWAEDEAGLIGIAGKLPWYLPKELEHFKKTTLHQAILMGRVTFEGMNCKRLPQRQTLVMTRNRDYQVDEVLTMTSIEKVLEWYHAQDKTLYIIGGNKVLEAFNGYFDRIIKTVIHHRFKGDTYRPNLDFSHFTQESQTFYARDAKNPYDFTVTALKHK

For `COc1cc(CC#Cc2c(C)nc(N)nc2N)cc(OC)c1OC` [Compound 5, 6-methyl-5-[3-(3,4,5-trimethoxyphenyl)prop-1-yn-1-yl]pyrimidine-2,4-diamine], the IC50 (ChDHFR-TS; IC50 against ChDHFR) was < 100000 nM, the IC50 (hDHFR; Table 3, read-out: hDHFR IC50) was 400 nM and the IC50 (TgDHFR) was < 100000 nM. For the same molecule, the IC50 (CgDHFR; IC50 against CgDHFR) was ≤ 25 nM, the IC50 (CgDHFR; Table 3, read-out: CgDHFR IC50) was 17 nM and the MIC (C. glabrata; [1]) was 20 µg/mL (≈ 60.9 µM). For the same molecule, the “antifungal properties against C. glabrata” value (C. glabrata) was “exhibited antifungal properties”.
With `COc1cc(CC#Cc2cnc(N)nc2N)cc(OC)c1OC` [Compound 1, 5-[3-(3,4,5-trimethoxyphenyl)prop-1-yn-1-yl]pyrimidine-2,4-diamine] the IC50 (ChDHFR-TS; IC50 against ChDHFR) was < 100000 nM, the IC50 (TgDHFR) was < 100000 nM and the IC50 (CgDHFR; CgDHFR IC50, Table 3) was 33 nM. For the same molecule, the “Antifungal activity MIC” value (C. glabrata; C. glabrata, Inact: not active at 2 mM (~600 μg/mL)) was “Inact*”.
`COc1cc(C(C)C#Cc2c(C)nc(N)nc2N)cc(N2CCNCC2)c1` (stereo not drawn) [Compound 159] showed an IC50 (hDHFR; [2]) of 270 ± 46 nM, a Selectivity (CgDHFR) of 1.9 ± 0.4 and an IC50 (CgDHFR; [3]) of 143 ± 10 nM. For the same molecule, the “MIC (Cg)” value (C. glabrata; C. glabrata, YM media) was “Inact” and the Solubility (Measured solubility) was 60 µg/mL (≈ 164 µM).
In the case of `COc1cc(-c2ccccc2)cc(C(C)C#Cc2c(C)nc(N)nc2N)c1` (racemic) [Compound 139, 5-[3-(5-methoxy-biphenyl-3-yl)but-1-yn-1-yl]-6-methylpyrimidine-2,4-diamine], the IC50 (ChDHFR-TS; [4]) is reported as 1.8 nM, the MIC (C. glabrata; C. glabrata, YM media, read-out: MIC (Cg)) is reported as 11 µg/mL (≈ 30.7 µM) and the Solubility (Measured solubility; aqueous with cosolvent or surfactant or cyclodextrin, kinetic from dmso stock, read-out: Solubility) is reported as 20 µg/mL (≈ 55.8 µM).
With `CCc1nc(N)nc(N)c1C#CC(C)c1cc(OC)cc(N2CCOCC2)c1` (stereo not drawn) [Compound 153] the IC50 (hDHFR; [2]) was 250 ± 4 nM, the Selectivity (CgDHFR) was 11 ± 1 and the IC50 (CgDHFR; [3]) was 22 ± 2 nM. The “MIC (Cg)” value (C. glabrata; C. glabrata, YM media) was 12 µg/mL (≈ 31.5 µM) and the Solubility (Measured solubility) was 80 µg/mL (≈ 210 µM).
With `COc1cc(-c2c(C(C)C)cccc2C(C)C)ccc1C(C)C#Cc1c(C)nc(N)nc1N` (stereo not drawn) [Compound F26I, 5-[3-(3-methoxy-2′6′-diisopropylbiphenyl-4-yl)but-1-yn-1-yl]-6-methylpyrimidine-2,4-diamine] the “Selectivity Ratio (IC50 ChDHFR/IC50 hDHFR)” value (ChDHFR-TS; Table 4) was 262, the IC50 (ChDHFR-TS; [4]) was 16 nM and the IC50 (hDHFR; Table 4, read-out: IC50 (hDHFR)) was 4200 ± 0.1 nM. The mammalian cell toxicity (mammalian cell lines) was “display mammalian cell toxcity”.
`COc1cc(C(C)C#Cc2c(C)nc(N)nc2N)cc(N2CCOCC2)c1` (stereo not drawn) [Compound 152] gave an IC50 (hDHFR; Table 5, average of at least three measurements, read-out: IC50 human) of 400 ± 40 nM, an IC50 (hDHFR; [2]) of 400 ± 40 nM and a Selectivity (CgDHFR) of 20 ± 4. The IC50 (CgDHFR; [3]) was 20 ± 3 nM, the “MIC (Cg)” value (C. glabrata; C. glabrata, YM media) was 12 µg/mL (≈ 32.7 µM) and the “Selectivity Index” value (C. glabrata; IC50 (MCF-10)/MIC (C. glabrata)) was 330. The “MIC C. glabrata” value (C. glabrata; IsoSensitest media supplemented with 2% glucose (thymidine-depleted)) was 1.4 µg/mL (≈ 3.81 µM), the “Selectivity (h/Sa)” value (S. aureus DHFR; IC50 (human)/IC50 (pathogen)) was 14 and the IC50 (S. aureus DHFR; [5]) was 29 ± 2 nM. The “Selectivity (h/Sp)” value (S. pyogenes DHFR; IC50 (human)/IC50 (pathogen)) was 15, the IC50 (S. pyogenes DHFR; [5]) was 26 ± 4 nM and the “Selectivity MRSA” value (S. aureus 13709 (MRSA); IC50 (MCF10)/MIC (pathogen)) was 159. For the same molecule, the “MIC MRSA” value (S. aureus 13709 (MRSA); Table 6) was 2.9 µg/mL (≈ 7.89 µM), the “Selectivity S. pyogenes” value (Streptococcus pyogenes; IC50 (MCF10)/MIC (pathogen)) was 19,250 and the “MIC S. pyogenes” value (Streptococcus pyogenes; Table 6) was 0.024 µg/mL (≈ 0.0653 µM). For the same molecule, the IC50 (MCF-10 cells; Table 6) was 462000 nM, the IC50 (MCF-10 cells; Table 8) was 462000 nM and the IC50 (HepG2 cells) was 494000 nM. It also gave a Solubility (Measured solubility) of 80 µg/mL (≈ 218 µM).
For `COc1cc([C@@H](C)C#Cc2c(C)nc(N)nc2N)cc(OC)c1OC` [137(R), 2,4-Diamino-5-((R)-3-(3,4,5-trimethoxyphenyl)but-1-ynyl)-6-methylpyrimidine], the IC50 (ChDHFR-TS; IC50 against ChDHFR) was < 100000 nM and the IC50 (TgDHFR) was < 100000 nM.
For `COc1cc([C@@H](C)C#Cc2c(C)nc(N)nc2N)cc(OC)c1OC` (racemic) [Compound X, 6-methyl-5-[3-(3,4,5-trimethoxyphenyl)but-1-yn-1-yl]pyrimidine-2,4-diamine], the IC50 (ChDHFR-TS; IC50 (ChDHFR), Table 4) was 169 ± 6 nM, the IC50 (ChDHFR-TS; IC50 against ChDHFR) was < 100000 nM and the IC50 (ChDHFR-TS; read-out: IC50 against ChDHFR) was 38 nM. The IC50 (TgDHFR; read-out: IC50 against TgDHFR) was < 100000 nM, the IC50 (CgDHFR; CgDHFR IC50, Table 3) was 25 nM and the IC50 (CgDHFR; IC50 against CgDHFR) was ≤ 25 nM. The MIC (C. glabrata; [1]) was 21 µg/mL (≈ 61.3 µM) and the “antifungal properties against C. glabrata” value (C. glabrata) was “exhibited antifungal properties”.
